The structures appear in SMILES notation.

Here are results for 1 compound from ChEMBL document CHEMBL2069281, “2-Phenylamino-6-cyano-1H-benzimidazole-based isoform selective casein kinase 1 gamma (CK1γ) inhibitors” (Bioorg Med Chem Lett, 2012).

The data set is described as follows: Clearance in rat at […], iv. The class given is ADME, organism-based. Also on record: dose 0.58 mg/kg, route intravenous. The following applies: in vivo.

What is called clearance is a measure of how efficiently the substance is removed, as volume per time. Compound `CC(C)(C)c1ccc(Nc2nc3ccc(C#N)cc3[nH]2)cc1` showed a clearance of 108 mL/min/kg.
